{"source": "PubChem BioAssay AID342", "about": "(DTP/NCI, 2004)", "tested_on": "Swiss mice, Sarcoma 180 sc, mean tumor weight T/C", "experiment": "NCI In Vivo Anticancer Drug Screen. Data for tumor model Sarcoma 180 (subcutaneous) in Swiss mice", "conditions": "endpoint: mean tumor weight, higher = larger tumour", "how_it_was_run": "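Mice bearing transplanted tumors were treated with compound, and survival or tumor size was measured. Values are expressed as the treated-group measurement (T) divided by the vehicle-treated control measurement (C).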", "key": {"[1]": {"conditions": "dose: 7.5 mg/kg/injection, schedule: Q01DX007 (ip), vehicle: carboxymethylcellulose (CMC)"}, "[2]": {"conditions": "dose: 15.0 mg/kg/injection, schedule: Q01DX007 (ip), vehicle: carboxymethylcellulose (CMC)"}}, "note": "Several values for one entry are separate records, joined by “and”; a condition that tells them apart may be missing. Equal entries are not always repeated. Square brackets hold non-standard residues; d marks the D form. Peptide text beside a SMILES is read from it. ξ: configuration not given here. Ac5c = NC1(C(=O)O)CCCC1; ξS = NC(CO)C(=O)O", "data": [{"smiles": "CCN(CC)CCNc1ccc(C)c2sc3ccccc3c(=O)c12", "values": [{"measurement": "T/C", "setting": "dose: 4.87 mg/kg/injection, schedule: Q#A X014 (ip), vehicle: carboxymethylcellulose (CMC)", "value": "120 % of control"}, {"measurement": "T/C", "setting": "[1]", "value": "93 % of control"}, {"measurement": "T/C", "setting": "dose: 9.75 mg/kg/injection, schedule: Q01DX007 (ip), vehicle: carboxymethylcellulose (CMC)", "value": "60 % of control"}, {"measurement": "T/C", "setting": "dose: 9.75 mg/kg/injection, schedule: Q#A X014 (ip), vehicle: carboxymethylcellulose (CMC)", "value": "77 % of control"}, {"measurement": "T/C", "setting": "dose: 12.5 mg/kg/injection, schedule: Q#A X014 (ip), vehicle: carboxymethylcellulose (CMC)", "value": "85 % of control"}, {"measurement": "T/C", "setting": "[2]", "value": "101 % of control"}, {"measurement": "T/C", "setting": "dose: 19.5 mg/kg/injection, schedule: Q01DX007 (ip), vehicle: carboxymethylcellulose (CMC)", "value": "72 % of control"}, {"measurement": "T/C", "setting": "dose: 19.5 mg/kg/injection, schedule: Q#A X014 (ip), vehicle: carboxymethylcellulose (CMC)", "value": "75 % of control"}, {"measurement": "T/C", "setting": "dose: 25.0 mg/kg/injection, schedule: Q#A X014 (ip), vehicle: carboxymethylcellulose (CMC)", "value": "64 % of control"}, {"measurement": "T/C", "setting": "dose: 30.0 mg/kg/injection, schedule: Q01DX007 (ip), vehicle: carboxymethylcellulose (CMC)", "value": "106 % of control"}, {"measurement": "T/C", "setting": "dose: 31.2 mg/kg/injection, schedule: Q01DX007 (ip), vehicle: carboxymethylcellulose (CMC)", "value": "117 % of control"}, {"measurement": "T/C", "setting": "dose: 39.0 mg/kg/injection, schedule: Q#A X014 (ip), vehicle: carboxymethylcellulose (CMC)", "value": "32 % of control"}, {"measurement": "T/C", "setting": "dose: 50.0 mg/kg/injection, schedule: Q#A X014 (ip), vehicle: carboxymethylcellulose (CMC)", "value": "35 % of control"}, {"measurement": "T/C", "setting": "dose: 52.0 mg/kg/injection, schedule: Q01DX007 (ip), vehicle: carboxymethylcellulose (CMC)", "value": "82 % of control"}, {"measurement": "T/C", "setting": "dose: 60.0 mg/kg/injection, schedule: Q01DX007 (ip), vehicle: carboxymethylcellulose (CMC)", "value": "55 % of control"}]}, {"smiles": "CN(C)C1C(=O)C(C(N)=O)=C(O)C2(O)C(=O)C3=C(O)c4c(O)cccc4C(C)(O)C3C(O)C12", "note": "(configuration not stated)", "values": [{"measurement": "T/C", "setting": "dose: 15.12 mg/kg/injection, schedule: Q01DX007 (ip), vehicle: carboxymethylcellulose (CMC)", "value": "98 % of control"}, {"measurement": "T/C", "setting": "dose: 17.5 mg/kg/injection, schedule: Q01DX007 (ip), vehicle: carboxymethylcellulose (CMC)", "value": "111 % of control"}, {"measurement": "T/C", "setting": "dose: 31.25 mg/kg/injection, schedule: Q01DX007 (ip), vehicle: carboxymethylcellulose (CMC)", "value": "124 % of control"}, {"measurement": "T/C", "setting": "dose: 35.0 mg/kg/injection, schedule: Q01DX007 (ip), vehicle: carboxymethylcellulose (CMC)", "value": "105 % of control"}, {"measurement": "T/C", "setting": "dose: 62.5 mg/kg/injection, schedule: Q01DX007 (ip), vehicle: carboxymethylcellulose (CMC)", "value": "117 % of control"}, {"measurement": "T/C", "setting": "dose: 70.0 mg/kg/injection, schedule: Q01DX007 (ip), vehicle: carboxymethylcellulose (CMC)", "value": "102 % of control"}, {"measurement": "T/C", "setting": "dose: 125.0 mg/kg/injection, schedule: Q01DX007 (ip), vehicle: carboxymethylcellulose (CMC)", "value": "50 % of control"}, {"measurement": "T/C", "setting": "dose: 140.0 mg/kg/injection, schedule: Q01DX007 (ip), vehicle: carboxymethylcellulose (CMC)", "value": "79 % of control"}]}, {"smiles": "NC(CO)C(=O)NC1(C(=O)O)CCCC1", "note": "(configuration not stated) (H-[ξS]-[Ac5c]-OH)", "values": [{"measurement": "T/C", "setting": "dose: 110.0 mg/kg/injection, schedule: Q01DX007 (ip), vehicle: carboxymethylcellulose (CMC)", "value": "84 % of control"}, {"measurement": "T/C", "setting": "dose: 167.0 mg/kg/injection, schedule: Q01DX007 (ip), vehicle: carboxymethylcellulose (CMC)", "value": "49 % of control"}, {"measurement": "T/C", "setting": "dose: 250.0 mg/kg/injection, schedule: Q01DX007 (ip), vehicle: carboxymethylcellulose (CMC)", "value": "21 % of control"}]}, {"smiles": "CN(N=O)C(N)=O", "values": [{"measurement": "T/C", "setting": "dose: 1.4 mg/kg/injection, schedule: Q#A X014 (ip), vehicle: carboxymethylcellulose (CMC)", "value": "45 % of control"}, {"measurement": "T/C", "setting": "dose: 1.5 mg/kg/injection, schedule: Q#A X014 (ip), vehicle: carboxymethylcellulose (CMC)", "value": "63 % of control"}, {"measurement": "T/C", "setting": "dose: 2.81 mg/kg/injection, schedule: Q#A X014 (ip), vehicle: carboxymethylcellulose (CMC)", "value": "53 % of control"}, {"measurement": "T/C", "setting": "dose: 3.0 mg/kg/injection, schedule: Q#A X014 (ip), vehicle: carboxymethylcellulose (CMC)", "value": "73 % of control"}, {"measurement": "T/C", "setting": "dose: 5.62 mg/kg/injection, schedule: Q#A X014 (ip), vehicle: carboxymethylcellulose (CMC)", "value": "27 % of control"}, {"measurement": "T/C", "setting": "dose: 6.0 mg/kg/injection, schedule: Q#A X014 (ip), vehicle: carboxymethylcellulose (CMC)", "value": "41 % of control"}, {"measurement": "T/C", "setting": "[1]", "value": "67 % of control"}, {"measurement": "T/C", "setting": "dose: 9.6 mg/kg/injection, schedule: Q01DX007 (ip), vehicle: carboxymethylcellulose (CMC)", "value": "65 % of control"}, {"measurement": "T/C", "setting": "dose: 11.25 mg/kg/injection, schedule: Q01DX007 (ip), vehicle: carboxymethylcellulose (CMC)", "value": "73 % of control"}, {"measurement": "T/C", "setting": "dose: 12.0 mg/kg/injection, schedule: Q01DX007 (ip), vehicle: carboxymethylcellulose (CMC)", "value": "49 % of control"}, {"measurement": "T/C", "setting": "dose: 12.0 mg/kg/injection, schedule: Q#A X014 (ip), vehicle: carboxymethylcellulose (CMC)", "value": "35 % of control"}, {"measurement": "T/C", "setting": "[2]", "value": "30 % of control"}, {"measurement": "T/C", "setting": "dose: 16.0 mg/kg/injection, schedule: Q01DX007 (ip), vehicle: carboxymethylcellulose (CMC)", "value": "51 % of control"}, {"measurement": "T/C", "setting": "dose: 22.5 mg/kg/injection, schedule: Q01DX007 (ip), vehicle: carboxymethylcellulose (CMC)", "value": "14 % of control"}, {"measurement": "T/C", "setting": "dose: 24.0 mg/kg/injection, schedule: Q01DX007 (ip), vehicle: carboxymethylcellulose (CMC)", "value": "31 % of control"}]}, {"smiles": "CC(=O)Nc1ccc(/C=N/Nc2ccc([N+](=O)[O-])cn2)cc1", "values": [{"measurement": "T/C", "setting": "dose: 45.0 mg/kg/injection, schedule: Q01DX007 (ip), vehicle: carboxymethylcellulose (CMC)", "value": "62 % of control"}, {"measurement": "T/C", "setting": "dose: 67.0 mg/kg/injection, schedule: Q01DX007 (ip), vehicle: carboxymethylcellulose (CMC)", "value": "79 % of control"}, {"measurement": "T/C", "setting": "dose: 83.3 mg/kg/injection, schedule: Q#A X014 (ip), vehicle: carboxymethylcellulose (CMC)", "value": "77 % of control"}, {"measurement": "T/C", "setting": "dose: 83.3 mg/kg/injection, schedule: Q#A X014 (ip), vehicle: methylcellulose (MC)", "value": "61 % of control"}, {"measurement": "T/C", "setting": "dose: 125.0 mg/kg/injection, schedule: Q#A X014 (ip), vehicle: carboxymethylcellulose (CMC)", "value": "22 % of control"}, {"measurement": "T/C", "setting": "dose: 187.5 mg/kg/injection, schedule: Q#A X014 (ip), vehicle: carboxymethylcellulose (CMC)", "value": "48 % of control"}, {"measurement": "T/C", "setting": "dose: 281.25 mg/kg/injection, schedule: Q#A X014 (ip), vehicle: carboxymethylcellulose (CMC)", "value": "47 % of control"}]}, {"smiles": "Clc1ccc2c(Cl)ncnc2c1", "values": [{"measurement": "T/C", "setting": "dose: 22.0 mg/kg/injection, schedule: Q#A X014 (ip), vehicle: methylcellulose (MC)", "value": "58 % of control and 64 % of control"}, {"measurement": "T/C", "setting": "dose: 22.5 mg/kg/injection, schedule: Q#A X014 (ip), vehicle: methylcellulose (MC)", "value": "80 % of control"}, {"measurement": "T/C", "setting": "dose: 33.0 mg/kg/injection, schedule: Q#A X014 (ip), vehicle: methylcellulose (MC)", "value": "57 % of control and 65 % of control"}, {"measurement": "T/C", "setting": "dose: 33.5 mg/kg/injection, schedule: Q#A X014 (ip), vehicle: methylcellulose (MC)", "value": "51 % of control"}, {"measurement": "T/C", "setting": "dose: 50.0 mg/kg/injection, schedule: Q#A X014 (ip), vehicle: methylcellulose (MC)", "value": "42 % of control and 48 % of control and 64 % of control"}, {"measurement": "T/C", "setting": "dose: 75.0 mg/kg/injection, schedule: Q#A X014 (ip), vehicle: methylcellulose (MC)", "value": "21 % of control"}]}, {"smiles": "Nc1ncnc2c1ccn2C1OC(CO)C(O)C1O", "note": "(configuration not stated)", "values": [{"measurement": "T/C", "setting": "dose: 0.62 mg/kg/injection, schedule: Q#A X014 (ip), vehicle: carboxymethylcellulose (CMC)", "value": "90 % of control"}]}, {"smiles": "CN(C)c1ccc2c(c1)Cc1cc(N=C3C=CC(=O)O3)ccc1-2", "values": [{"measurement": "T/C", "setting": "dose: 48.0 mg/kg/injection, schedule: Q01DX007 (ip), vehicle: other", "value": "83 % of control"}, {"measurement": "T/C", "setting": "dose: 73.0 mg/kg/injection, schedule: Q01DX007 (ip), vehicle: other", "value": "101 % of control"}, {"measurement": "T/C", "setting": "dose: 166.0 mg/kg/injection, schedule: Q01DX007 (ip), vehicle: other", "value": "40 % of control and 65 % of control"}]}, {"smiles": "Nc1c(Br)cc2c(c1Br)Cc1cc(Cl)ccc1-2", "values": [{"measurement": "T/C", "setting": "dose: 27.0 mg/kg/injection, schedule: Q01DX007 (ip), vehicle: other", "value": "52 % of control"}, {"measurement": "T/C", "setting": "dose: 41.0 mg/kg/injection, schedule: Q01DX007 (ip), vehicle: other", "value": "44 % of control"}, {"measurement": "T/C", "setting": "dose: 62.0 mg/kg/injection, schedule: Q01DX007 (ip), vehicle: other", "value": "60 % of control"}]}, {"smiles": "COc1cc2c(c(OC3OC(CO)C(O)C(O)C3O)c1)C(=O)CC(c1ccc(O)cc1)O2", "note": "(configuration not stated)", "values": [{"measurement": "T/C", "setting": "dose: 100.0 mg/kg/injection, schedule: Q01DX007 (ip), vehicle: other", "value": "90 % of control"}, {"measurement": "T/C", "setting": "dose: 200.0 mg/kg/injection, schedule: Q01DX007 (ip), vehicle: other", "value": "71 % of control"}]}, {"smiles": "COc1cc(C(=O)CC2CCCCN2)ccc1O", "note": "(configuration not stated)", "values": [{"measurement": "T/C", "setting": "dose: 55.0 mg/kg/injection, schedule: Q01DX007 (ip), vehicle: saline", "value": "62 % of control"}, {"measurement": "T/C", "setting": "dose: 83.0 mg/kg/injection, schedule: Q01DX007 (ip), vehicle: saline", "value": "120 % of control"}, {"measurement": "T/C", "setting": "dose: 125.0 mg/kg/injection, schedule: Q01DX007 (ip), vehicle: saline", "value": "95 % of control and 96 % of control"}, {"measurement": "T/C", "setting": "dose: 250.0 mg/kg/injection, schedule: Q01DX007 (ip), vehicle: saline", "value": "83 % of control"}]}]}
